Each compound was assayed against human TNIK (N-terminal segment, TNIK_N, residues 1-314) (Homo sapiens (Human), UniProt Q9UKE5) (assay: TNIK kinase assay (mobility shift)). Details: TNIK_N kinase activity, 25 μM ATP, 1 h at room temperature.
Format: biochemical
Description: Preparation of Recombinant Human TNIK (N-Terminal Segment):
A cDNA encoding the N-terminal segment (TNIK_N, residues 1-314) containing the kinase domain of human TNIK (NM_015028.1) was amplified from cDNA mixture synthesized from human tissue (Biochain) by PCR using the following primers.
The cDNA was subcloned into baculovirus transfer vector pFastBac_GSTb that includes protease cleavage site and glutathione S-transferase purification tag (GST-tag). The plasmid was purified and the insertion of the pFastBac_GSTb-TNIK_N was confirmed by DNA sequencing. Then E. coli DH10Bac competent cells were transformed with the plasmid to prepare the recombinant bacmid according to the instructions for the Bac-to-Bac™ baculovirus expression systems (Invitrogen). The Sf9 cells were transfected with the recombinant bacmid containing pFastBac_GSTb-TNIK_N using Cellfectin Reagent (Invitrogen) in SF-9001I serum free media (Invitrogen). The viral supernatant was collected from the medium 72 h after transfection. The virus was amplified three times by infecting actively growing Sf9 or Sf21 cells in Grace's insect media (Invitrogen) supplemented with 10% FCS and an antibiotic-antimycotic reagent (Invitrogen) for 72 h at 27° C. in T-flask or roller bottles. The titer of amplified TNIK_N virus was estimated at 2.36×10^8 pfu/ml by using BacPAK™ Baculovirus Rapid Titer kit (Clontech).
Log-phase Sf21 cells (2×10^6 cells/ml) in the Grace's insect media were infected with the recombinant baculovirus at MOI of 3.0 and incubated in roller bottles (250 ml media per bottle) for 72 h at 27° C., after which, the cells were collected by centrifugation, and the cell pellet washed with cold PBS and kept at −80° C. until purification. The following purification procedures were carried out at 4° C. The frozen cells were thawed on ice and lysed in lysis buffer (50 mM Tris-HCl, pH 7.5, 150 mM NaCl, 1% Nonidet P-40, 5 mM DTT, 0.5 mM EDTA, 0.5 mM EGTA) supplemented with 1 mM phenylmethansulfonylfluoride, 2 μg/ml leupeptin, 2 μg/ml aprotinin, 1 mM NaF, 100 μM sodium orthovanadate, and 1 μM cantharidin by sonication. The suspended lysate was cleared by centrifugation at 9000g for 20 min and the supernatant was incubated for 1 h with glutathione Sepharose beads (GE Healthcare). The beads were suspended in buffer-H (50 mM Tris-HCl, pH 7.5, 1 M NaCl, 1 mM DTT, 0.5 mM EDTA, 0.5 mM EGTA and 0.05% Brij35) and washed with buffer-H followed by buffer-L (50 mM Tris-HCl, pH 7.5, 150 mM NaCl, 1 mM DTT, 0.5 mM EDTA, 0.5 mM EGTA, 0.05% Brij35) in an Econo-pack column (BIO-RAD). The bound TNIK_N was eluted with elution buffer (50 mM Tris-HCl, pH 8.0, 150 mM NaCl, 1 mM DTT, 10% glycerol, 0.5 mM EDTA, 0.5 mM EGTA and 5 mM reduced glutathione). The eluted fractions were collected and determined the protein concentration by Bradford reagent (BIO-RAD). The TNIKN fractions were pooled and desalted using 10DG column (BIORAD) equilibrated with the storage buffer (50 mM Tris-HCl, pH 7.5, 150 mM NaCl, 1 mM DTT, 10% glycerol, 0.05% Brij35). The purified TNIKN was characterized by electrophoresis using 4-20% polyacrylamide gels and matrix-assisted laser desorption/ionization reflection time-of-flight (MALDI-TOF) mass spectrometry on a Voyager-DE RP MALDI/TOF (Applied Biosystems). TNIK_N was confirmed by the molecular weight and. MASCOT Peptide Mass Fingerprint.
The kinase assays were conducted in a 20 μl volume using 384-well plates (Greiner). The reaction mixture consists of compound or vehicle (1% DMSO), 0.08 ng/μl TNIK_N, 1 μM FITC-labeled substrate peptides, including E-aminocaproic acid and 7 amino acids (described as SEQ ID NO.3 in “Kinase assay of TEST EXAMPLE 1” of WO 2010/064111(P.31)), 20 mM Hepes, pH 7.5, 0.01% Triton X-100, 5 mM MgCl2, 25 μM ATP and 2 mM DTT. As blank, TNIK N was excluded from the reaction mixture of vehicle (1% DMSO). […]

human TNIK (N-terminal segment, TNIK_N, residues 1-314), sequence (Q9UKE5 1-314): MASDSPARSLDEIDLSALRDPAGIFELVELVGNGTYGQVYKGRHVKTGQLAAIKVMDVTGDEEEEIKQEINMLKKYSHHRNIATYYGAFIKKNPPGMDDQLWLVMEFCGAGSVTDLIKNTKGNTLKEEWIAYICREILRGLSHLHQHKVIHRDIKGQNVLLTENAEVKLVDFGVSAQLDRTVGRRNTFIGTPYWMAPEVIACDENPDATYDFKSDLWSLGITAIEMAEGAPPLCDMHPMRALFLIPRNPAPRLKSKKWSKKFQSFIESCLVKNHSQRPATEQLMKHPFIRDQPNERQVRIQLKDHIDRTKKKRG

| IC50 [nM] | SMILES |
| --- | --- |
| 2.9 | NC(=O)c1nc(Nc2ccc3ccccc3c2)sc1NC(=O)c1ccc(Cc2nn[nH]n2)cc1 [Example 231, 5-{4-[(2H-tetrazol-5-yl)methyl]benzamido}-2-(naphthalen-2-ylamino)thiazole-4-carboxamide] |
| 10.3 | NC(=O)c1nc(Nc2ccc3ccccc3c2)sc1NC(=O)c1ccc(Cn2cccn2)cc1 [Example 232, 5-{4-[(1H-pyrazol-1-yl)methyl]benzamido}-2-(naphthalen-2-ylamino)thiazole-4-carboxamide] |
| 10.7 | NC(=O)c1nc(Nc2ccc3ccccc3c2)sc1NC(=O)C#CCCCn1cncn1 [Example 233, 5-[6-(1H-1,2,4-triazol-1-yl)hex-2-ynamido]-2-(naphthalen-2-ylamino)thiazole-4-carboxamide] |
| 9.7 | NC(=O)c1nc(Nc2ccc3ccccc3c2)sc1NC(=O)C#CCCCn1ccnc1 [Example 234, 5-[6-(1H-imidazol-1-yl)hex-2-ynamido]-2-(naph-thalen-2-ylamino)thiazole-4-carboxamide] |
| 2.3 | Cc1nccn1Cc1ccc(C(=O)Nc2sc(Nc3ccc4ccccc4c3)nc2C(N)=O)cc1 [Example 237, 5-{4-[(2-methyl-1H-imidazol-1-yl)methyl]benz-amido}-2-(naphthalen-2-ylamino)thiazole-4-carbox-amide] |
| 3.1 | Cc1cn(Cc2ccc(C(=O)Nc3sc(Nc4ccc5ccccc5c4)nc3C(N)=O)cc2)cn1 [Example 238, 5-{4-[(4-methyl-1H-imidazol-1-yl)methyl]benz-amido}-2-(naphthalen-2-ylamino)thiazole-4-carbox-amide] |
| 5.9 | NC(=O)c1nc(Nc2ccc3ccccc3c2)sc1NC(=O)c1ccc(Cn2cnc([N+](=O)[O-])c2)cc1 [Example 239, 2-(naphthalen-2-ylamino)-5-{4-[(4-nitro-1H-imidazol-1-yl)methyl]benzamido}thiazole-4-carbox-amide] |
| 14.8 | NC(=O)c1nc(Nc2ccc3ccccc3c2)sc1NC(=O)c1ccc(Cn2cnc([N+](=O)[O-])n2)cc1 [Example 243, 2-(naphthalen-2-ylamino)-5-{4-[(3-nitro-1H-1,2,4-triazol-1-yl)methyl]benzamido}thiazole-4-carbox-amide] |
| 7.1 | Cc1nnnn1Cc1ccc(C(=O)Nc2sc(Nc3ccc4ccccc4c3)nc2C(N)=O)cc1 [Example 244, 5-{4-[(5-methyl-1H-tetrazol-1-yl)methyl]benz-amido}-2-(naphthalen-2-ylamino)thiazole-4-carbox-amide] |

More lines, now with the values behind:

| SMILES | IC50 [nM] |
| --- | --- |
| NC(=O)c1nc(Nc2ccc3ccccc3c2)sc1NC(=O)c1ccc(CN2CCC(O)CC2)cc1 [Example 173, 5-{4-[(4-hydroxypiperidin-1-yl)methyl]benzamido}-2-(naphthalen-2-ylamino)thiazole-4-carbox-amide] | 3.4 |
| CN1CCN(C/C=C/C(=O)Nc2sc(Nc3ccc4ccccc4c3)nc2C(N)=O)CC1 [Example 174, (E)-5-(4-(4-methylpiperazin-1-yl)but-2-enamido)-2-(naphthalen-2-ylamino)thiazole-4-carboxamide] | 16 |
| NC(=O)c1nc(Nc2ccc3ccccc3c2)sc1NC(=O)c1ccc(CN2CCNC(=O)C2)cc1 [Example 180, 2-(naphthalen-2-ylamino)-5-{4-[(3-oxopiperazin-1-yl)methyl]benzamido}thiazole-4-carboxamide] | 4.2 |
| NC(=O)c1nc(Nc2ccc3ccccc3c2)sc1NC(=O)c1ccc(CN2CCN(CCO)CC2)cc1 [Example 185, 5-(4-{[4-(2-hydroxyethyl)piperazin-1-yl]methyl}benzamido)-2-(naphthalen-2-ylamino)thiazole-4-carboxamide] | 2.7 |
| NC(=O)c1nc(Nc2ccc3ccccc3c2)sc1NC(=O)c1ccc(N2CCN(CCO)CC2)cc1 [Example 187, 5-{4-[4-(2-hydroxyethyl)piperazin-1-yl]benzamido}-2-(naphthalen-2-ylamino)thiazole-4-carbox-amide] | 7.2 |
| NCCNc1ccc(C(=O)Nc2sc(Nc3ccc4ccccc4c3)nc2C(N)=O)cc1 [Example 188, 5-{4-[(2-aminoethyl)amino]benzamido}-2-(naph-thalen-2-ylamino)thiazole-4-carboxamide] | 8.4 |
| NC(=O)c1nc(Nc2ccc3ccccc3c2)sc1NC(=O)c1ccc(CN2CCCCC2CO)cc1 (centres unmarked) [Example 189, 5-(4-{[2-(hydroxymethyl)piperidin-1-yl]methyl}benzamido)-2-(naphthalen-2-ylamino)thiazole-4-carboxamide] | 6.8 |
| CN1CCCN(Cc2ccc(C(=O)Nc3sc(Nc4ccc5ccccc5c4)nc3C(N)=O)cc2)CC1 [Example 190, 5-{4-[(4-methyl-1,4-diazepan-1-yl)methyl]benz-amido}-2-(naphthalen-2-ylamino)thiazole-4-carbox-amide] | 3.2 |
| NC(=O)c1nc(Nc2ccc3ccccc3c2)sc1NC(=O)c1ccc(CN2CC(O)C2)cc1 [Example 201, 5-{4-[(3-hydroxyazetidin-1-yl)methyl]benzamido}-2-(naphthalen-2-ylamino)thiazole-4-carbox-amide] | 5.6 |
| NC(=O)c1nc(Nc2ccc3ccccc3c2)sc1NC(=O)c1ccc(CN2CC[C@@H](O)C2)cc1 [Example 202, (R)-5-{4-[(3-hydroxypyrrolidin-1-yl)methyl]benzamido}-2-(naphthalen-2-ylamino)thiazole-4-carboxamide] | 5.5 |
| NC(=O)c1nc(Nc2ccc3ccccc3c2)sc1NC(=O)c1ccc(CN2CC[C@H](O)C2)cc1 [Example 203, (S)-5-{4-[(3-hydroxypyrrolidin-1-yl)methyl]benzamido}-2-(naphthalen-2-ylamino)thiazole-4-carboxamide] | 5 |
| C#CC(=O)Nc1sc(Nc2ccc3ccccc3c2)nc1C(N)=O [Example 204, 2-(naphthalen-2-ylamino)-5-propiolamidothiazole-4-carboxamide] | 6 |
| NC(=O)c1nc(Nc2ccc3ccccc3c2)sc1NC(=O)C#CCO [Example 218, 5-(4-hydroxybut-2-ynamido)-2-(naphthalen-2-yl-amino)thiazole-4-carboxamide] | 4.5 |
| NC(=O)c1nc(Nc2ccc3ccccc3c2)sc1NC(=O)c1ccc(CN2CC[C@H](N)C2)cc1 [Example 220, (S)-5-{4-[(3-aminopyrrolidin-1-yl)methyl]benz-amido}-2-(naphthalen-2-ylamino)thiazole-4-carbox-amide] | 3 |
| CN(C)[C@H]1CCN(Cc2ccc(C(=O)Nc3sc(Nc4ccc5ccccc5c4)nc3C(N)=O)cc2)C1 [Example 221, (S)-5-(4-{[3-(dimethylamino)pyrrolidin-1-yl]methyl}benzamido)-2-(naphthalen-2-ylamino) thiazole-4-carboxamide] | 2.6 |
| NC(=O)c1nc(Nc2ccc3ccccc3c2)sc1NC(=O)c1ccc(CN2CCC(N)CC2)cc1 [Example 222, 5-{4-[(4-aminopiperidin-1-yl)methyl]benzamido}-2-(naphthalen-2-ylamino)thiazole-4-carboxamide] | 1.3 |
| NC(=O)c1nc(Nc2ccc3ccccc3c2)sc1NC(=O)C#CCCO [Example 225, 5-(5-hydroxypent-2-ynamido)-2-(naphthalen-2-ylamino)thiazole-4-carboxamide] | 4 |
